Experimental data: patent publication US20250091982A1, “Pharmaceutical Composition, Methods of Use Thereof for Treating Cocaine Addiction, and Novel Use of Hausp K444R Point Mutant Mouse” (PHARWAR BIOTECHNOLOGY, INC. PTE. LTD., priority 2022, published 2025)

Legend:
[1] = system: HAUSP levels in SH-SY5Y cells; assay: Western blot of HAUSP in cocaine-treated SH-SY5Y cells; conditions: cocaine 200 μM with inhibitor, 24 hr; for HAUSP levels decreased by cocaine in SH-SY5Y cells (western blot): FIG. 14C; for relative protein expression ratios of HAUSP normalized with β-actin: quantified with ImageJ, FIG. 14D
SIAH1 = target: T1, SIAH1 (Homo sapiens, UniProt Q8IUQ4); assay: E3-ligase auto ubiquitination assay (K48-linked polyubiquitination of HAUSP mediated by SIAH1); assay type: biochemical; conditions: 37° C., 1 hour, Western blot with Ub-K48 antibody, compared to vehicle; FIG. 14A, 14B
T1 sequence (Q8IUQ4 1-282): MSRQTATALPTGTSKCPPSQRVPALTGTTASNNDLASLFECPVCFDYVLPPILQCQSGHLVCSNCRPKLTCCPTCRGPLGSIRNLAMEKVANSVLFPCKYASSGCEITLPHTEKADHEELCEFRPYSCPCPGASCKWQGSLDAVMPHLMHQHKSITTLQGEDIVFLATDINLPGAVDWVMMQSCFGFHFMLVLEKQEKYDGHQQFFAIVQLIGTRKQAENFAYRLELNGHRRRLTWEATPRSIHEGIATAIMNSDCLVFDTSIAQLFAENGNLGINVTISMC
Procedure: SIAH1 mediates the K48-linked polyubiquitination of HAUSP. Therefore, for the ubiquitination assay, SIAH1 was incubated in the solution (0.25 mg/1 ml, total 100 μg) containing 20 mM Tris-HCl buffer (pH 8.0), 100 mM NaCl, 1 mM DTT and 40% glycerol and HAUSP (50 μg) was in 50 mM HEPES pH 7.5, 100 mM NaCl, 1 mM TCEP (tris (2-carboxyethyl) phosphine) buffer. […] The E3-ligase auto ubiquitination assay was performed by E3 Ligase Auto-Ubiquitilylation Assay Kit (Abcam, ab139469, UK).

[2] = system: lever press induced by cocaine; assay: Lever press test (cocaine self-administration); assay type: in vivo, mice; conditions: 10 mg/kg intraperitoneally 10 min prior to cocaine self-administration
Procedure: Mice were anesthetized with isoflurane (induction and maintenance at 4%-5%) for surgical implantation of a jugular vein catheter connected to a head-mounted entry port. Briefly, the right jugular vein was exposed, and the catheter tubing was inserted and secured to the vein. The catheter was passed under the skin to an incision on the head, and the port was secured to the skull with dental cement anchored by screws. Mice were given buprenorphine (0.05-0.10 mg/kg, intraperitoneal.) for analgesia and allowed to recover for 7-10 days before beginning self-administration. Catheter patency was maintained by daily infusion of 100 μl heparin (120 U/μl) through the catheter and treated with Cefazolin, 200 mg/kg, subcutaneously, to prevent bacterial infections.
The lever press test was done in extra wide mouse operant chambers with a modified top (Med Associates, VT, USA). The chamber contained a retractable lever, a food pellet receptacle connected to a pellet dispenser, with a stimulus light above the pellet receptacle, and contained a house light. Cocaine was delivered by a syringe pump located outside the chamber, and the drug delivery tubing was connected to the mice through a swivel (Instech, Plymouth Meeting, PA, USA) and the swivel arm connected on top of the chamber to allow free movement of the mice during self-administration. All the sessions were remotely operated and recorded by MED-PC V software (Med Associates, VT, USA). Mice were pre-trained with food through pressing the levers and were food-restricted during the study. After training, mice were provided ad libitum access to water and food.
Self-administration sessions took place once daily during the light-dark cycle for 14 consecutive days. Before starting the study, mice were allowed to acclimate to the housing for approximately 3 days. The availability of cocaine reward was indicated by illumination of the house light and pressing levers. […] Each infusion was paired with a cue (1 s illumination of the stimulus green light) followed by a 10-second time-out signaled by turning off the house light. […] Each chamber was operated under a 3-hour session, or until mice received 100 infusions (20 mg/kg) of cocaine (to prevent cocaine overdose). No treatment groups were implanted with a catheter and placed in the operant chambers with identical cues but not connected to the syringe pump and received no reward for pressing the active levers. Vehicle or inhibitor (Compound 2-2, Compound 2-3, or Compound 3-3) with a dosage of 10 mg/kg was injected intraperitoneally for 10 min prior to cocaine self-administration. The content of the vehicle is 0.5% DMSO, 25% PEG-300, 4% Tween-80, and 70.5% saline. Mice met criteria for acquisition of self-administration when they: (1) self-administered at least 30 infusions in a session; (2) >85% of responses were on the active […]; and (3) had no more than 20% variation in number of infusions between sessions. The lever press frequency and number within 3 hours indicate the cocaine addiction symptom.

[3] = system: cocaine conditioned place preference; assay: Conditioned place preference (CPP) test induced by cocaine; assay type: in vivo, mice; conditions: compound 10 mg/kg 10 mins before cocaine 25 mg/kg i.p.; FIG. 12D
From the text: (§1) Conditioned place preference (CPP) is a classical conditioning paradigm used in behavioral neuroscience to study the rewarding and aversive properties of drugs or other stimuli. It involves associating a particular environment or location with the experience of a rewarding or aversive stimulus, such as drugs, food, or electric shock. In CPP experiment, mice were first trained to associate one compartment of a box and then, they were placed in the neutral compartment and allowed to freely explore both compartments, and animals' preference for one compartment over the other was measured. After vehicle/Compound 2-2 (10 mg/kg)/Compound 2-3 (10 mg/kg)/Compound 3-3 (10 mg/kg) treatment for 10 mins, the well-trained mice were administrated with cocaine (25 mg/kg, i.p.) for 30 mins. The content of the vehicle is 0.5% DMSO, 25% PEG-300, 4% Tween-80, and 70.5% saline. The locomotion activity experiment was the same as the method of open field test described in Experiment 2.

[4] = system: locomotion activity induced by cocaine; assay: Locomotion activity (open field test) of cocaine induced mice; assay type: in vivo; conditions: compound 10 mg/kg 10 mins before cocaine 25 mg/kg i.p.; FIGS. 12A to 12C
From the text: 8 mice from Preparation Example 2 were randomly chosen to conduct Locomotion Activity I. The open fields using white acrylic chambers measured 50 cm (length)×50 cm (width)×38 cm (height) were made from white high density and non-porous plastics. Once the Video Tracking software (ANY-maze, Stoelting Co, IL, USA) was opened, the cursor was moved to the “Single-Subject Tracking” option located under the “Data Acquisition” tab and single-clicked to open this option. The software package used in this protocol allows the tracking of up to 6 individual mice at one time. The mice were brought to open fields to acclimate to the procedure room for 30 minutes (min) prior to starting the test. The tracking plot of randomly chosen 6 mice was recorded and analyzed by ANY-maze software.
as §1

inhibition of K48-linked polyubiquitination of HAUSP mediated by SIAH1 (SIAH1) | SMILES | HAUSP levels decreased by cocaine in SH-SY5Y cells (western blot) [1] | relative protein expression ratios of HAUSP normalized with β-actin [1] | cumulative cocaine reinforcements ([2]; FIG. 13G) | latency to first response in mice treated with cocaine ([2]; FIG. 13H) | lever press frequencies induced by cocaine treatment ([2]; FIGS. 13A to 13F) | time spent in cocaine paired compartments (CPP test) [3] | increased locomotion activity or increased distance traveled induced by cocaine treatment [4]
can inhibit | COCCNC(=O)c1ccc(Cl)cc1NS(=O)(=O)c1ccccc1C [Compound 2-1, 4-Chloro-N-(2-methoxyethyl)-2-((2-methylphenyl)sulfonamido)benzamide] | can restore | can restore | – | – | – | – | –
can inhibit | COCCNC(=O)c1ccc(Cl)cc1NC(=O)c1c(F)cccc1F [Compound 2-5, 4-Chloro-N-(2-methoxyethyl)-2-(2,6-difluorobenzamido)benzamide] | can restore | can restore | – | – | – | – | –
can inhibit | COCCNC(=O)c1ccccc1NS(=O)(=O)c1ccccc1C [Compound 3-1, N-(2-Methoxyethyl)-2-((2-methylphenyl)sulfonamido)benzamide] | can restore | can restore | – | – | – | – | –
can inhibit | COCCNC(=O)c1ccc(Br)cc1NC(=O)c1c(C)cc(C)cc1C [Compound 4-2, N-(5-Bromo-2-((2-methoxyethyl)carbamoyl)phenyl)-2,4,6-trimethylbenzamide] | can restore | can restore | – | – | – | – | –
can inhibit | COCCNC(=O)c1ccc(C)cc1NC(=O)c1c(C)cc(C)cc1C [Compound 5-2, N-(2-((2-Methoxyethyl)carbamoyl)-5-methylphenyl)-2,4,6-trimethylbenzamide] | can restore | can restore | – | – | – | – | –
can inhibit | CCOCCNC(=O)c1ccc(Cl)cc1NC(=O)c1ccccc1C [Compound 6-1, 4-Chloro-N-(2-ethoxyethyl)-2-(2-methylbenzamido)benzamide] | can restore | can restore | – | – | – | – | –
can inhibit | CC(C)(C)C(=O)Oc1ccc(S(=O)(=O)Nc2ccccc2C(=O)NCCO)cc1 [Compound 12-1] | can restore | can restore | – | – | – | – | –
can inhibit | Cc1ccccc1S(=O)(=O)Nc1ccccc1C(=O)NCCO [Compound 12-2, N-(2-hydroxyethyl)-2-(2-methylphenylsulfonamido)benzamide] | can restore | can restore | – | – | – | – | –

The remaining lines, values behind:

SMILES | inhibition of K48-linked polyubiquitination of HAUSP mediated by SIAH1 (SIAH1) | HAUSP levels decreased by cocaine in SH-SY5Y cells (western blot) [1] | relative protein expression ratios of HAUSP normalized with β-actin [1] | cumulative cocaine reinforcements ([2]; FIG. 13G) | latency to first response in mice treated with cocaine ([2]; FIG. 13H) | lever press frequencies induced by cocaine treatment ([2]; FIGS. 13A to 13F) | time spent in cocaine paired compartments (CPP test) [3] | increased locomotion activity or increased distance traveled induced by cocaine treatment [4]
Cc1ccccc1C(=O)OCCOC(=O)c1ccc(Cl)cc1N [Compound 1-1, 2-((2-Methylbenzoyl)oxy) ethyl 2-amino-4-chlorobenzoate] | can inhibit | can restore | can restore | – | – | – | – | –
COCCNC(=O)c1ccc(Cl)cc1NC(=O)c1c(C)cc(C)cc1C [Compound 2-3, N-(5-Chloro-2-((2-methoxyethyl)carbamoyl)phenyl)-2,4,6-trimethylbenzamide] | can inhibit | can restore | can restore | decreased | increased | decreased | decreased | decreased
COCCNC(=O)c1ccc(Cl)cc1NS(=O)(=O)c1c(C)cc(C)cc1C [Compound 2-4, 4-Chloro-N-(2-methoxyethyl)-2-((2,4,6-trimethylphenyl)sulfonamido)benzamide] | can inhibit | can restore | can restore | – | – | – | – | –
COCCNC(=O)c1ccccc1NC(=O)c1ccccc1C [Compound 3-2, N-(2-Methoxyethyl)-2-(2-methylbenzamido)benzamide] | can inhibit | can restore | can restore | – | – | – | – | –
COCCNC(=O)c1ccc(Br)cc1NC(=O)c1ccccc1C [Compound 4-1, 4-Bromo-N-(2-methoxyethyl)-2-(2-methylbenzamido)benzamide] | can inhibit | can restore | can restore | – | – | – | – | –
CCCOCCNC(=O)c1ccc(Cl)cc1NC(=O)c1ccccc1C [Compound 7-1, 4-Chloro-N-(2-propoxyethyl)-2-(2-methylbenzamido)benzamide] | can inhibit | can restore | can restore | – | – | – | – | –
